Test results published in patent publication US8680052B1, “Methods of treating, reducing the incidence of, and/or preventing ischemic events” (The Medicines Company, priority 2013, dated 2014).
Like-named read-outs stand apart in the source and are kept apart here.

Key:
[1] = in vivo; cited from earlier work
platelet function = conditions: in vivo; cited from earlier work
[2] = system: patients undergoing percutaneous coronary intervention (PCI); conditions: for OR (95% CI): All-cause mortality / OR (95% CI): IDR / OR (95% CI): MI / OR (95% CI): Mortality/MI/IDR / OR (95% CI): Mortality/Q-wave MI/IDR / OR (95% CI): Mortality/Q-wave MI/Stent thrombosis / OR (95% CI): Q-wave MI / OR (95% CI): Stent thrombosis / OR (95% CI): Stroke / OR (95% CI): Mortality/MI/IDR (primary endpoint): cangrelor vs comparator arm; for Mortality/Q-wave MI/IDR / Mortality/Q-wave MI/Stent thrombosis: exploratory
Experimental: The diagnosis of non-ST-segment elevation myocardial infarction required troponin I or T greater than the upper limit of normal within 24 hours of randomization (or if troponin results were unavailable at that time, creatine kinase-myocardial band isoenzyme [CK-MB] greater than the upper limit of normal). The diagnosis of unstable angina required ischemic chest discomfort occurring at rest and lasting ≧10 minutes within the 24 hours prior to randomization and dynamic electrocardiographic changes; age ≧65 years and/or diabetes mellitus were also required.
The primary efficacy endpoint was the composite of mortality, myocardial infarction, or ischemia-driven revascularization at 48 hours. The primary analysis was performed on a modified intent-to-treat population. Confirmatory analyses were performed on an intent-to-treat population. Secondary endpoints included the individual rates of mortality, myocardial infarction, new Q-wave myocardial infarction, ischemia-driven revascularization, abrupt vessel closure, or stroke at 48 hours. Mortality at 30 days and 1 year was also recorded. The clinical events committee adjudicated myocardial infarction, Q-wave myocardial infarction, ischemia-driven revascularization, stent thromboses, and stroke (ischemic or hemorrhagic). The definition of stent thrombosis was similar to the Academic Research Consortium definition of definite stent thrombosis. After review of the prespecified analyses, two exploratory endpoints less reliant on periprocedural biomarker ascertainment were examined. The exploratory endpoints, which were composed of prespecified and adjudicated endpoints, were the composite of mortality, Q-wave myocardial infarction, or ischemia-driven revascularization and the composite of mortality, Q-wave myocardial infarction, or stent thrombosis. Bleeding and adverse events through 48 hours were compared.
All efficacy analyses were performed on the modified intent-to-treat population, defined as all randomized patients who received at least one dose of study drug and underwent the index PCI. All safety-related analyses were performed on the safety population, which included all patients who received at least one dose of assigned study drug. Patients in the safety analyses were assigned to a treatment arm based on treatment actually received, not as randomized. Intent-to-treat analyses are also presented for full disclosure of results. All statistical tests were two-tailed using a level of significance of 0.05. […] Logistic regression was also used to analyze the majority of the remaining secondary endpoints.

[3] = 48-hour, MITT, listed as cangrelor

CSCCNc1nc(SCCC(F)(F)F)nc2c1ncn2[C@@H]1O[C@H](COP(=O)(O)OP(=O)(O)C(Cl)(Cl)P(=O)(O)O)[C@@H](O)[C@H]1O [Cangrelor, cangrelor]
plasma half-life [1]: 3 to 5 min | platelet function returns to normal after drug termination (platelet function): 30 to 60 min | All-cause mortality ([2]; 30-day, ITT): 36 (1.3) no. (%) | IDR ([2]; 30-day, ITT): 37 (1.4) no. (%) | MI ([2]; 30-day, ITT): 190 (7.1) no. (%) | Mortality/MI/IDR ([2]; 30-day, ITT): 230 (8.6) no. (%) | Q-wave MI ([2]; 30-day, ITT): 8 (0.3) no. (%) | Stent thrombosis ([2]; 30-day, ITT): 15 (0.6) no. (%) | OR (95% CI): All-cause mortality ([2]; 30-day, ITT): 0.754 (0.487, 1.167) | OR (95% CI): IDR ([2]; 30-day, ITT): 0.743 (0.483, 1.142) | OR (95% CI): MI ([2]; 30-day, ITT): 0.924 (0.752, 1.135) | OR (95% CI): Mortality/MI/IDR ([2]; 30-day, ITT): 0.885 (0.734, 1.067) | OR (95% CI): Mortality/Q-wave MI/IDR ([2]; 30-day, ITT): 0.718 (0.524, 0.984) | OR (95% CI): Mortality/Q-wave MI/Stent thrombosis ([2]; 30-day, ITT): 0.648 (0.453, 0.927) | OR (95% CI): Q-wave MI ([2]; 30-day, ITT): 0.526 (0.222, 1.242) | OR (95% CI): Stent thrombosis ([2]; 30-day, ITT): 0.508 (0.272, 0.950) | Mortality/Q-wave MI/IDR ([2]; 30-day, ITT): 69 (2.6) no. (%) | Mortality/Q-wave MI/Stent thrombosis ([2]; 30-day, ITT): 51 (1.9) no. (%) | All-cause mortality ([2]; 30-day, MITT): 33 (1.2) no. (%) | IDR ([2]; 30-day, MITT): 37 (1.4) no. (%) | MI ([2]; 30-day, MITT): 189 (7.1) no. (%) | Mortality/MI/IDR ([2]; 30-day, MITT): 226 (8.5) no. (%) | Q-wave MI ([2]; 30-day, MITT): 8 (0.3) no. (%) | Stent thrombosis ([2]; 30-day, MITT): 15 (0.6) no. (%) | OR (95% CI): All-cause mortality ([2]; 30-day, MITT): 0.725 (0.461, 1.140) | OR (95% CI): IDR ([2]; 30-day, MITT): 0.796 (0.515, 1.231) | OR (95% CI): MI ([2]; 30-day, MITT): 0.929 (0.756, 1.142) | OR (95% CI): Mortality/MI/IDR ([2]; 30-day, MITT): 0.892 (0.739, 1.078) | OR (95% CI): Mortality/Q-wave MI/IDR ([2]; 30-day, MITT): 0.730 (0.528, 1.008) | OR (95% CI): Mortality/Q-wave MI/Stent thrombosis ([2]; 30-day, MITT): 0.647 (0.447, 0.935) | OR (95% CI): Q-wave MI ([2]; 30-day, MITT): 0.566 (0.237, 1.352) | OR (95% CI): Stent thrombosis ([2]; 30-day, MITT): 0.529 (0.282, 0.993) | Mortality/Q-wave MI/IDR ([2]; 30-day, MITT): 66 (2.5) no. (%) | Mortality/Q-wave MI/Stent thrombosis ([2]; 30-day, MITT): 48 (1.8) no. (%) | All-cause mortality ([2]; 30-day, Safety population): 34 (1.3) no. (%) | IDR ([2]; 30-day, Safety population): 37 (1.4) no. (%) | MI ([2]; 30-day, Safety population): 188 (7.1) no. (%) | Mortality/MI/IDR ([2]; 30-day, Safety population): 226 (8.5) no. (%) | Q-wave MI ([2]; 30-day, Safety population): 8 (0.3) no. (%) | Stent thrombosis ([2]; 30-day, Safety population): 15 (0.6) no. (%) | OR (95% CI): All-cause mortality ([2]; 30-day, Safety population): 0.747 (0.477, 1.170) | OR (95% CI): IDR ([2]; 30-day, Safety population): 0.779 (0.504, 1.202) | OR (95% CI): MI ([2]; 30-day, Safety population): 0.913 (0.743, 1.122) | OR (95% CI): Mortality/MI/IDR ([2]; 30-day, Safety population): 0.884 (0.732, 1.067) | OR (95% CI): Mortality/Q-wave MI/IDR ([2]; 30-day, Safety population): 0.732 (0.531, 1.010) | OR (95% CI): Mortality/Q-wave MI/Stent thrombosis ([2]; 30-day, Safety population): 0.651 (0.452, 0.938) | OR (95% CI): Q-wave MI ([2]; 30-day, Safety population): 0.528 (0.224, 1.248) | OR (95% CI): Stent thrombosis ([2]; 30-day, Safety population): 0.529 (0.282, 0.993) | Mortality/Q-wave MI/IDR ([2]; 30-day, Safety population): 67 (2.5) no. (%) | Mortality/Q-wave MI/Stent thrombosis ([2]; 30-day, Safety population): 49 (1.8) no. (%) | All-cause mortality ([2]; 48-hour, ITT): 8 (0.3) no. (%) | IDR ([2]; 48-hour, ITT): 19 (0.7) no. (%) | MI ([2]; 48-hour, ITT): 177 (6.6) no. (%) | Mortality/MI/IDR ([2]; 48-hour, ITT): 187 (6.9) no. (%) | Q-wave MI ([2]; 48-hour, ITT): 4 (0.1) no. (%) | Stent thrombosis ([2]; 48-hour, ITT): 5 (0.2) no. (%) | Stroke ([2]; 48-hour, ITT): 7 (0.3) no. (%) | OR (95% CI): All-cause mortality ([2]; 48-hour, ITT): 0.415 (0.181, 0.950) | OR (95% CI): IDR ([2]; 48-hour, ITT): 0.721 (0.398, 1.307) | OR (95% CI): MI ([2]; 48-hour, ITT): 0.906 (0.734, 1.120) | OR (95% CI): Mortality/MI/IDR ([2]; 48-hour, ITT): 0.859 (0.701, 1.054) | OR (95% CI): Mortality/Q-wave MI/IDR ([2]; 48-hour, ITT): 0.558 (0.341, 0.915) | OR (95% CI): Mortality/Q-wave MI/Stent thrombosis ([2]; 48-hour, ITT): 0.409 (0.224, 0.749) | OR (95% CI): Q-wave MI ([2]; 48-hour, ITT): 0.439 (0.135, 1.428) | OR (95% CI): Stent thrombosis ([2]; 48-hour, ITT): 0.308 (0.113, 0.842) | OR (95% CI): Stroke ([2]; 48-hour, ITT): 1.155 (0.388, 3.442) | Mortality/Q-wave MI/IDR ([2]; 48-hour, ITT): 25 (0.9) no. (%) | Mortality/Q-wave MI/Stent thrombosis ([2]; 48-hour, ITT): 15 (0.6) no. (%) | All-cause mortality ([2]; 48-hour, MITT): 6 (0.2) no. (%) | IDR ([2]; 48-hour, MITT): 19 (0.7) no. (%) | MI ([2]; 48-hour, MITT): 177 (6.7) no. (%) | Mortality/MI/IDR (primary endpoint) ([2]; 48-hour, MITT): 185 (7.0) no. (%) | Q-wave MI ([2]; 48-hour, MITT): 4 (0.2) no. (%) | Stent thrombosis ([2]; 48-hour, MITT): 5 (0.2) no. (%) | Stroke ([2]; 48-hour, MITT): 7 (0.3) no. (%) | OR (95% CI): All-cause mortality ([2]; 48-hour, MITT): 0.330 (0.131, 0.833) | OR (95% CI): IDR ([2]; 48-hour, MITT): 0.786 (0.430, 1.439) | OR (95% CI): MI ([2]; 48-hour, MITT): 0.917 (0.742, 1.133) | OR (95% CI): Mortality/MI/IDR (primary endpoint) ([2]; 48-hour, MITT): 0.867 (0.706, 1.065) | OR (95% CI): Mortality/Q-wave MI/IDR ([2]; 48-hour, MITT): 0.554 (0.332, 0.926) | OR (95% CI): Mortality/Q-wave MI/Stent thrombosis ([2]; 48-hour, MITT): 0.377 (0.199, 0.717) | OR (95% CI): Q-wave MI ([2]; 48-hour, MITT): 0.497 (0.149, 1.652) | OR (95% CI): Stent thrombosis ([2]; 48-hour, MITT): 0.310 (0.113, 0.847) | OR (95% CI): Stroke ([2]; 48-hour, MITT): 1.394 (0.442, 4.398) | OR (95% CI): All-cause mortality [2, 3]: 0.33 | OR (95% CI): Mortality/MI/IDR (primary endpoint) [2, 3]: 0.87 | OR (95% CI): Stent thrombosis [2, 3]: 0.31 | Mortality/Q-wave MI/IDR ([2]; 48-hour, MITT): 23 (0.9) no. (%) | Mortality/Q-wave MI/Stent thrombosis ([2]; 48-hour, MITT): 13 (0.5) no. (%)
